{"source": "ChEMBL document CHEMBL1135067", "about": "“Synthesis and antithrombotic activity of carbolinecarboxyl RGD sequence” (2002)", "format_in_all_cases": "functional", "key": {"Rattus norvegicus [1]": {"tested_on": "Rattus norvegicus", "assay": "Tested for the effect on the wet thrombus weight at a dose of 5 uM/kg in male wistar anesthetized rat"}, "Oryctolagus cuniculus [2]": {"species_on_record": "Oryctolagus cuniculus", "assay": "Tested in vitro for the maximal rate of platelet aggregation induced by platelet activating factor (10 e-7 mol/L) at a dose of 10 e5 mol/L in rabbit blood"}, "Oryctolagus cuniculus [3]": {"species_on_record": "Oryctolagus cuniculus", "assay": "Tested in vitro for the maximal rate of platelet aggregation induced by platelet activating factor (10 e-7 mol/L) at a dose of 10 e7 mol/L in rabbit blood"}, "Oryctolagus cuniculus [4]": {"species_on_record": "Oryctolagus cuniculus", "assay": "Tested in vitro for maximal rate of platelet aggregation induced by adenosine diphosphate (10 e5 mol/L) at a dose of 10 e6 mol/L in rabbit blood"}, "Rattus norvegicus [5]": {"tested_on": "Rattus norvegicus", "assay": "Tested for the effect on the dry thrombus weight at a dose of 5 umol/kg in male wistar anesthetized rat"}, "Oryctolagus cuniculus [6]": {"species_on_record": "Oryctolagus cuniculus", "assay": "Tested in vitro for maximal rate of platelet aggregation induced by adenosine diphosphate (10 e5 mol/L) at a dose of 10 e7 mol/L in rabbit blood"}, "Oryctolagus cuniculus [7]": {"species_on_record": "Oryctolagus cuniculus", "assay": "Tested in vitro for maximal rate of platelet aggregation induced by adenosine diphosphate (10 e5 mol/L) at a dose of 10 e5 mol/L in rabbit blood"}, "Oryctolagus cuniculus [8]": {"species_on_record": "Oryctolagus cuniculus", "assay": "Tested in vitro for the maximal rate of platelet aggregation induced by platelet activating factor (10 e-7 mol/L) at a dose of 10 e6 mol/L in rabbit blood"}, "SACC-LM": {"tested_on": "SACC-LM", "assay": "Tested for the effect of compound on the adhesion of high pulmonary metastatic SACC cell line SACC-LM and platelets at 5 mg/mL"}, "Rattus norvegicus [9]": {"tested_on": "Rattus norvegicus", "assay": "Tested for the effect on the wet thrombus weight at a dose of 5 umol/kg in male wistar anesthetized rat"}, "Rattus norvegicus [10]": {"tested_on": "Rattus norvegicus", "assay": "Tested for the effect on the dry thrombus weight at a dose of 5 uM/kg in male wistar anesthetized rat"}}, "note": "Where a SMILES comes first, the peptide text is derived from it. [ ]: non-standard residue; d: D form. Tpi = O=C(O)[C@@H]1Cc2c([nH]c3ccccc23)CN1", "data": [{"smiles": "N=C(N)NCCC[C@H](NC(=O)[C@@H]1Cc2c([nH]c3ccccc23)CN1)C(=O)NCC(=O)N[C@@H](CC(=O)O)C(=O)N[C@@H](Cc1ccccc1)C(=O)O", "note": "(H-[Tpi]RGDF-OH)", "values": [{"measurement": "Thrombus weight", "setting": "Rattus norvegicus [1]", "result": 22.3, "unit": "mg"}, {"measurement": "Am", "setting": "Oryctolagus cuniculus [2]", "result": 20.05, "unit": "%"}, {"measurement": "Am", "setting": "Oryctolagus cuniculus [3]", "result": 36.05, "unit": "%"}, {"measurement": "Am", "setting": "Oryctolagus cuniculus [4]", "result": 21.05, "unit": "%"}, {"measurement": "Thrombus weight", "setting": "Rattus norvegicus [5]", "result": 2.76, "unit": "mg"}, {"measurement": "Am", "setting": "Oryctolagus cuniculus [6]", "result": 36.05, "unit": "%"}, {"measurement": "Am", "setting": "Oryctolagus cuniculus [7]", "result": 9.01, "unit": "%"}, {"measurement": "Am", "setting": "Oryctolagus cuniculus [8]", "result": 25.54, "unit": "%"}, {"measurement": "Activity", "setting": "SACC-LM", "result": 28.1, "unit": "%"}]}, {"smiles": "O=C(O)[C@@H]1Cc2c([nH]c3ccccc23)CN1", "note": "[CYCLOMETHYLTRYPTOPHAN]", "values": [{"measurement": "Am", "setting": "Oryctolagus cuniculus [2]", "result": 35.66, "unit": "%"}, {"measurement": "Thrombus weight", "setting": "Rattus norvegicus [9]", "result": 42.99, "unit": "mg"}, {"measurement": "Am", "setting": "Oryctolagus cuniculus [3]", "result": 55.15, "unit": "%"}, {"measurement": "Am", "setting": "Oryctolagus cuniculus [4]", "result": 45.16, "unit": "%"}, {"measurement": "Thrombus weight", "setting": "Rattus norvegicus [10]", "result": 7.17, "unit": "mg"}, {"measurement": "Am", "setting": "Oryctolagus cuniculus [6]", "result": 53.66, "unit": "%"}, {"measurement": "Am", "setting": "Oryctolagus cuniculus [7]", "result": 24.6, "unit": "%"}, {"measurement": "Am", "setting": "Oryctolagus cuniculus [8]", "result": 50.18, "unit": "%"}, {"measurement": "Activity", "setting": "SACC-LM", "result": 45.6, "unit": "%"}]}, {"smiles": "NC(N)=NCCC[C@H](N)C(=O)NCC(=O)N[C@@H](CC(=O)O)C(=O)N[C@@H](Cc1ccccc1)C(=O)O", "note": "(H-RGDF-OH)", "values": [{"measurement": "Am", "setting": "Oryctolagus cuniculus [2]", "result": 7.81, "unit": "%"}, {"measurement": "Thrombus weight", "setting": "Rattus norvegicus [9]", "result": 26.61, "unit": "mg"}, {"measurement": "Am", "setting": "Oryctolagus cuniculus [3]", "result": 39.18, "unit": "%"}, {"measurement": "Am", "setting": "Oryctolagus cuniculus [4]", "result": 22.11, "unit": "%"}, {"measurement": "Thrombus weight", "setting": "Rattus norvegicus [5]", "result": 4.14, "unit": "mg"}, {"measurement": "Am", "setting": "Oryctolagus cuniculus [6]", "result": 35.7, "unit": "%"}, {"measurement": "Am", "setting": "Oryctolagus cuniculus [7]", "result": 7.36, "unit": "%"}, {"measurement": "Am", "setting": "Oryctolagus cuniculus [8]", "result": 23.8, "unit": "%"}, {"measurement": "Activity", "setting": "SACC-LM", "result": 29.7, "unit": "%"}]}, {"smiles": "N=C(N)NCCC[C@H](N)C(=O)NCC(=O)N[C@@H](CC(=O)O)C(=O)NC(CO)C(=O)O", "note": "(single isomer, unassigned)", "values": [{"measurement": "Am", "setting": "Oryctolagus cuniculus [2]", "result": 21.16, "unit": "%"}, {"measurement": "Thrombus weight", "setting": "Rattus norvegicus [9]", "result": 43.61, "unit": "mg"}, {"measurement": "Am", "setting": "Oryctolagus cuniculus [3]", "result": 57.2, "unit": "%"}, {"measurement": "Am", "setting": "Oryctolagus cuniculus [4]", "result": 40.54, "unit": "%"}, {"measurement": "Thrombus weight", "setting": "Rattus norvegicus [5]", "result": 7.68, "unit": "mg"}, {"measurement": "Am", "setting": "Oryctolagus cuniculus [6]", "result": 52.85, "unit": "%"}, {"measurement": "Am", "setting": "Oryctolagus cuniculus [7]", "result": 14.22, "unit": "%"}, {"measurement": "Am", "setting": "Oryctolagus cuniculus [8]", "result": 36.15, "unit": "%"}, {"measurement": "Activity", "setting": "SACC-LM", "result": 35.8, "unit": "%"}]}, {"smiles": "N=C(N)NCCC[C@H](NC(=O)[C@@H]1Cc2c([nH]c3ccccc23)CN1)C(=O)NCC(=O)N[C@@H](CC(=O)O)C(=O)N[C@@H](CO)C(=O)O", "note": "(H-[Tpi]RGDS-OH)", "values": [{"measurement": "Am", "setting": "Oryctolagus cuniculus [2]", "result": 28.07, "unit": "%"}, {"measurement": "Thrombus weight", "setting": "Rattus norvegicus [9]", "result": 28.09, "unit": "mg"}, {"measurement": "Am", "setting": "Oryctolagus cuniculus [3]", "result": 56.1, "unit": "%"}, {"measurement": "Am", "setting": "Oryctolagus cuniculus [4]", "result": 43.05, "unit": "%"}, {"measurement": "Thrombus weight", "setting": "Rattus norvegicus [5]", "result": 4.98, "unit": "mg"}, {"measurement": "Am", "setting": "Oryctolagus cuniculus [6]", "result": 50.16, "unit": "%"}, {"measurement": "Am", "setting": "Oryctolagus cuniculus [7]", "result": 16.11, "unit": "%"}, {"measurement": "Am", "setting": "Oryctolagus cuniculus [8]", "result": 34.15, "unit": "%"}, {"measurement": "Activity", "setting": "SACC-LM", "result": 36.1, "unit": "%"}]}, {"smiles": "CC(C)[C@H](NC(=O)[C@H](CC(=O)O)NC(=O)CNC(=O)[C@H](CCCN=C(N)N)NC(=O)[C@@H]1Cc2c([nH]c3ccccc23)CN1)C(=O)O", "note": "(H-[Tpi]RGDV-OH)", "values": [{"measurement": "Am", "setting": "Oryctolagus cuniculus [2]", "result": 24.11, "unit": "%"}, {"measurement": "Thrombus weight", "setting": "Rattus norvegicus [9]", "result": 29.49, "unit": "mg"}, {"measurement": "Am", "setting": "Oryctolagus cuniculus [3]", "result": 54.1, "unit": "%"}, {"measurement": "Am", "setting": "Oryctolagus cuniculus [4]", "result": 26.01, "unit": "%"}, {"measurement": "Thrombus weight", "setting": "Rattus norvegicus [5]", "result": 4.87, "unit": "mg"}, {"measurement": "Am", "setting": "Oryctolagus cuniculus [6]", "result": 50.2, "unit": "%"}, {"measurement": "Am", "setting": "Oryctolagus cuniculus [7]", "result": 10.75, "unit": "%"}, {"measurement": "Am", "setting": "Oryctolagus cuniculus [8]", "result": 35.05, "unit": "%"}, {"measurement": "Activity", "setting": "SACC-LM", "result": 30.2, "unit": "%"}]}, {"smiles": "CC(C)[C@H](NC(=O)[C@H](CC(=O)O)NC(=O)CNC(=O)[C@@H](N)CCCN=C(N)N)C(=O)O", "note": "(H-RGDV-OH)", "values": [{"measurement": "Am", "setting": "Oryctolagus cuniculus [2]", "result": 19.56, "unit": "%"}, {"measurement": "Thrombus weight", "setting": "Rattus norvegicus [9]", "result": 34.62, "unit": "mg"}, {"measurement": "Am", "setting": "Oryctolagus cuniculus [3]", "result": 54.36, "unit": "%"}, {"measurement": "Am", "setting": "Oryctolagus cuniculus [4]", "result": 29.4, "unit": "%"}, {"measurement": "Thrombus weight", "setting": "Rattus norvegicus [5]", "result": 6.03, "unit": "mg"}, {"measurement": "Am", "setting": "Oryctolagus cuniculus [6]", "result": 51.16, "unit": "%"}, {"measurement": "Am", "setting": "Oryctolagus cuniculus [7]", "result": 9.8, "unit": "%"}, {"measurement": "Am", "setting": "Oryctolagus cuniculus [8]", "result": 34.17, "unit": "%"}, {"measurement": "Activity", "setting": "SACC-LM", "result": 32.1, "unit": "%"}]}]}
